Results as given in patent US9156796B2, “Benzoimidazole-carboxylic acid amide derivatives as APJ receptor modulators” (SANOFI, priority 2013, dated 2015).
pEC50: −log10 of the molar value.

Each compound was assayed against T1, human apelin receptor (Homo sapiens, UniProt P35414) (assay: Determination of agonism on the human apelin receptor by a calcium fluorescence assay (FLIPR)). Details: HEK293 cells stably transfected with human apelin receptor and Giaq protein, Fluo-4 calcium fluorescence, read-out: EC50 (APJ agonism).
T1 construct: expressed in transfected cells
T1 sequence (P35414 1-380): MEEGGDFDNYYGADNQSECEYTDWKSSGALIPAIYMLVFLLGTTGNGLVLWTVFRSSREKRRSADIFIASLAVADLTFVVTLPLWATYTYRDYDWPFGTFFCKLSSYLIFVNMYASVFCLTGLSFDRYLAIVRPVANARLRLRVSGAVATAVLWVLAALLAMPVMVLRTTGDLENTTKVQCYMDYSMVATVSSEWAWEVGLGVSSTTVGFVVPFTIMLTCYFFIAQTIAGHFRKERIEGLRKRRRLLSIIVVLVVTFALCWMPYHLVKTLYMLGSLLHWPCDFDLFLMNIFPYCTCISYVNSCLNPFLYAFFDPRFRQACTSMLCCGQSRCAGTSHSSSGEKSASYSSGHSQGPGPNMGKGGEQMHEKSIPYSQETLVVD
Assay type: cell-based
How it was run: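 HEK293 cells stably co-expressing human apelin receptor and promiscuous Giaq, loaded 1 h at 37 °C with Fluo-4 (4 μM) in probenecid-containing Hepes buffer, pH 7.4. Compounds, at least 7 concentrations in triplicate, added in FLIPR Tetra; peak calcium fluorescence normalized to 1 μM apelin-13 as 100% to derive EC50.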
Compound `CCC(CC)n1c(Cc2cccs2)nc2cc(C(=O)N[C@@H](CC(C)C)C(=O)N3CCC(N(C)CCN(C)C)CC3)ccc21` [Example 310, 1-(1-Ethyl-propyl)-2-thiophen-2-ylmethyl-1H-benzoimidazole-5-carboxylic acid ((S)-1-{4-[(2-dimethylamino-ethyl)-methyl-amino]-piperidine-1-carbonyl}-3-methyl-butyl)-amide] has a pEC50 of 6.79.
For `CCC(CC)n1c(Cc2cccs2)nc2cc(C(=O)N[C@@H](CC(C)C)C(=O)NCCCN3CCC(C)CC3)ccc21` [Example 320, 1-(1-Ethyl-propyl)-2-thiophen-2-ylmethyl-1H-benzoimidazole-5-carboxylic acid {(S)-3-methyl-1-[3-(4-methyl-piperidin-1-yl)-propylcarbamoyl]-butyl}-amide], the pEC50 was 6.41.
With `CCC(CC)n1c(Cc2cccs2)nc2cc(C(=O)N[C@@H](CC(C)C)C(=O)NC3CCN(Cc4cccnc4)CC3)ccc21` [Example 308, 1-(1-Ethyl-propyl)-2-thiophen-2-ylmethyl-1H-benzoimidazole-5-carboxylic acid [(S)-3-methyl-1-(1-pyridin-3-ylmethyl-piperidin-4-ylcarbamoyl)-butyl]-amide] the pEC50 was 6.17.
`CCC(CC)n1c(Cc2cccs2)nc2cc(C(=O)N[C@@H](CC(C)C)C(=O)NC(C)CCN3CCOCC3)ccc21` (stereo partly drawn) [Example 306, 1-(1-Ethyl-propyl)-2-thiophen-2-ylmethyl-1H-benzoimidazole-5-carboxylic acid [(S)-3-methyl-1-(1-methyl-3-morpholin-4-yl-propylcarbamoyl)-butyl]-amide] was tested, and the pEC50 was 5.90.
For `CCOCCCNC(=O)[C@H](CC(C)C)NC(=O)c1ccc2c(c1)nc(Cc1cccs1)n2C(CC)CC` [Example 359, 1-(1-Ethyl-propyl)-2-thiophen-2-ylmethyl-1H-benzoimidazole-5-carboxylic acid [(S)-1-(3-ethoxy-propylcarbamoyl)-3-methyl-butyl]-amide], the pEC50 was 5.67.
Work on `CCC(CC)n1c(Cc2cccs2)nc2cc(C(=O)N[C@@H](CC(C)C)C(=O)NCC3CN(C)CCO3)ccc21` (stereo partly drawn) [Example 343, 1-(1-Ethyl-propyl)-2-thiophen-2-ylmethyl-1H-benzoimidazole-5-carboxylic acid {(S)-3-methyl-1-[(4-methyl-morpholin-2-ylmethyl)-carbamoyl]-butyl}-amide] yielded a pEC50 of 6.38.
For `CCC(CC)n1c(Cc2cccs2)nc2cc(C(=O)N[C@@H](CC(C)C)C(=O)N[C@@H](C)c3ccccc3F)ccc21` [Example 262, 1-(1-Ethyl-propyl)-2-thiophen-2-ylmethyl-1H-benzoimidazole-5-carboxylic acid {(S)-1-[(S)-1-(2-fluoro-phenyl)-ethylcarbamoyl]-3-methyl-butyl}-amide], the pEC50 was 5.34.
`CCC(CC)n1c(Cc2cccs2)nc2cc(C(=O)N[C@@H](CC3CCCCC3)[C@H](O)CC(=O)O)ccc21` [Example 73, (3R,4S)-5-Cyclohexyl-4-{[1-(1-ethyl-propyl)-2-thiophen-2-ylmethyl-1H-benzoimidazole-5-carbonyl]-amino}-3-hydroxy-pentanoic acid] showed a pEC50 of 7.19.
With `CCC[C@H](NC(=O)c1ccc2c(c1)nc(Cc1cccs1)n2[C@@H]1CCCC[C@H]1C)C(=O)O` [Example 91, (S)-2-{[1-((1R,2R)-2-Methyl-cyclohexyl)-2-thiophen-2-ylmethyl-1H-benzoimidazole-5-carbonyl]-amino}-pentanoic acid] the pEC50 was 6.86.
`CCC(CC)C(CC(=O)O)NC(=O)c1ccc2c(c1)nc(Cc1cccs1)n2C(CC)CC` (centres unmarked) [Example 59, 4-Ethyl-3-{[1-(1-ethyl-propyl)-2-thiophen-2-ylmethyl-1H-benzoimidazole-5-carbonyl]-amino}-hexanoic acid] gave a pEC50 of 6.24.
`CCC(CC)n1c(Cc2cccs2)nc2cc(C(=O)N[C@@H](CC(C)C)C(=O)NCCc3ccccc3OC)ccc21` [Example 362, 1-(1-Ethyl-propyl)-2-thiophen-2-ylmethyl-1H-benzoimidazole-5-carboxylic acid {(S)-1-[2-(2-methoxy-phenyl)-ethylcarbamoyl]-3-methyl-butyl}-amide] gave a pEC50 of 4.57.
